In the assay the test system is BDF1 mice, B16 melanoma ip, median survival T/C. The assay can be described thus: NCI In Vivo Anticancer Drug Screen. Data for tumor model B16 Melanoma (intraperitoneal) in B6D2F1 (BDF1) mice. To be noted: endpoint: median survival time, higher = longer survival. An outline of the steps:
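Antitumor activity is assessed in mice bearing a transplanted tumor, with survival or tumor size compared against vehicle-dosed controls and expressed as T/C.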

The mark [1] stands for this setting: dose: 25.0 mg/kg/injection, schedule: Q01DX009 (ip), vehicle: Klucel (hydroxypropylcellulose) (HPC).
Where [2] appears, read: dose: 50.0 mg/kg/injection, schedule: Q01DX009 (ip), vehicle: Klucel (hydroxypropylcellulose) (HPC).
The mark [3] stands for this setting: dose: 25.0 mg/kg/injection, schedule: Q01DX009 (ip), vehicle: saline.
The mark [4] stands for this setting: dose: 50.0 mg/kg/injection, schedule: Q01DX009 (ip), vehicle: saline.
Where [5] appears, read: dose: 100.0 mg/kg/injection, schedule: Q01DX009 (ip), vehicle: saline.
Where [6] appears, read: dose: 25.0 mg/kg/injection, schedule: Q01DX009 (ip), vehicle: saline with Tween-80.
[7] abbreviates: dose: 50.0 mg/kg/injection, schedule: Q01DX009 (ip), vehicle: saline with Tween-80.
[8] abbreviates: dose: 25.0 mg/kg/injection, schedule: Q04DX003 (ip), vehicle: Klucel (hydroxypropylcellulose) (HPC).
[9] abbreviates: dose: 100.0 mg/kg/injection, schedule: Q01DX009 (ip), vehicle: Klucel (hydroxypropylcellulose) (HPC).
Where [10] appears, read: dose: 200.0 mg/kg/injection, schedule: Q01DX009 (ip), vehicle: Klucel (hydroxypropylcellulose) (HPC).
The mark [11] stands for this setting: dose: 3.12 mg/kg/injection, schedule: Q01DX009 (ip), vehicle: Klucel (hydroxypropylcellulose) (HPC).
The mark [12] stands for this setting: dose: 6.25 mg/kg/injection, schedule: Q01DX009 (ip), vehicle: Klucel (hydroxypropylcellulose) (HPC).
[13] abbreviates: dose: 12.5 mg/kg/injection, schedule: Q01DX009 (ip), vehicle: Klucel (hydroxypropylcellulose) (HPC).
Where [14] appears, read: dose: 100.0 mg/kg/injection, schedule: Q04DX003 (ip), vehicle: saline with Tween-80.
Where [15] appears, read: dose: 200.0 mg/kg/injection, schedule: Q04DX003 (ip), vehicle: saline with Tween-80.
The mark [16] stands for this setting: dose: 100.0 mg/kg/injection, schedule: Q01DX009 (ip), vehicle: saline with Tween-80.
Setting [17] is: dose: 200.0 mg/kg/injection, schedule: Q01DX009 (ip), vehicle: saline with Tween-80.
Setting [18] is: dose: 400.0 mg/kg/injection, schedule: Q01DX009 (ip), vehicle: saline with Tween-80.
Where [19] appears, read: dose: 400.0 mg/kg/injection, schedule: Q01DX009 (ip), vehicle: Klucel (hydroxypropylcellulose) (HPC).

Toxic doses and inconclusive results are not listed.

Consider `COc1cc(C2c3cc4c(cc3CC3COC(=O)C32)OCO4)cc(OC)c1O` (configuration not stated), for which the T/C is 98 % of control (dose: 0.5 mg/kg/injection, schedule: Q01DX009 (ip), vehicle: saline with Tween-80); 104 % of control (dose: 1.0 mg/kg/injection, schedule: Q01DX009 (ip), vehicle: saline with Tween-80); 123 % of control (dose: 2.0 mg/kg/injection, schedule: Q01DX009 (ip), vehicle: saline with Tween-80); 106 % of control (dose: 4.0 mg/kg/injection, schedule: Q01DX009 (ip), vehicle: saline with Tween-80).
`COc1ccc(CCNC(C)=O)cc1OC`: the T/C reads like this: under setting [1], 91 % of control; under setting [2], 89 % of control.
Turning to `COc1cc(C(=O)OC(C)CN2CCN(C(=O)c3cc(OC)c(OC)c(OC)c3)CC2)cc(OC)c1OC` (configuration not stated), the T/C reads like this: (dose: 12.5 mg/kg/injection, schedule: Q01DX009 (ip), vehicle: saline) 116 % of control; under setting [3], 105 % of control; under setting [4], 100 % of control; under setting [5], 110 % of control.
Take `O=C(O)c1cc(C(=O)O)cc([N+](=O)[O-])c1`: the T/C reads like this: under setting [6], 97 % of control; under setting [7], 100 % of control.
Consider `Cc1ccc(S(=O)(=O)OCCN(CCOS(=O)(=O)c2ccc(C)cc2)c2ccc(F)cc2)cc1`, for which the T/C was 115 % of control (dose: 0.17 mg/kg/injection, schedule: Q01DX009 (ip), vehicle: saline); 108 % of control (dose: 0.35 mg/kg/injection, schedule: Q01DX009 (ip), vehicle: saline); 106 % of control (dose: 0.7 mg/kg/injection, schedule: Q01DX009 (ip), vehicle: saline); 115 % of control (dose: 1.5 mg/kg/injection, schedule: Q01DX009 (ip), vehicle: saline); 119 % of control (dose: 3.13 mg/kg/injection, schedule: Q01DX009 (ip), vehicle: saline); 117 % of control (dose: 6.25 mg/kg/injection, schedule: Q01DX009 (ip), vehicle: saline). Moreover, the T/C (dose: 12.5 mg/kg/injection, schedule: Q01DX009 (ip), vehicle: saline + alcohol) was 88 % of control; the T/C (dose: 50.0 mg/kg/injection, schedule: Q01DX009 (ip), vehicle: saline + alcohol) is 110 % of control; the T/C under setting [4] is 154 % of control; the T/C (dose: 100.0 mg/kg/injection, schedule: Q01DX009 (ip), vehicle: saline + alcohol) is 104 % of control.
For `CCCCCCCCCOCCOCCOCCN`, the T/C runs as follows: (dose: 12.5 mg/kg/injection, schedule: Q04DX003 (ip), vehicle: Klucel (hydroxypropylcellulose) (HPC)) 98 % of control; under setting [8], 90 % of control.
For the compound `CCCCCCCCCCCCCCNC(=O)CCl`, the T/C is 113 % of control under setting [9] and 106 % of control under setting [10].
With `CC(C)C[C@H](O)C(=O)O`, the T/C under setting [3] was 104 % of control and the T/C under setting [4] was 110 % of control.
Consider `CN(C)c1ccc2c(N(C)C)cc(N(C)C)nc2c1`, for which the T/C by setting is: under setting [11], 99 % of control; under setting [12], 107 % of control; under setting [13], 97 % of control; under setting [1], 108 % of control; under setting [2], 102 % of control.
Consider `COc1cc2c(cc1OC)-c1ccc3cc4c(cc3c1N(C)C2)OCO4`, for which the T/C reads like this: (dose: 5.0 mg/kg/injection, schedule: Q01DX009 (ip), vehicle: water) 103 % of control; (dose: 10.0 mg/kg/injection, schedule: Q01DX009 (ip), vehicle: water) 102 % of control; (dose: 20.0 mg/kg/injection, schedule: Q01DX009 (ip), vehicle: water) 100 % of control; (dose: 40.0 mg/kg/injection, schedule: Q01DX009 (ip), vehicle: water) 101 % of control; (dose: 80.0 mg/kg/injection, schedule: Q01DX009 (ip), vehicle: water) 102 % of control.
For the compound `CC(=O)OCC1OC(n2cnc3c(=S)nc[nH]c32)C(OC(C)=O)C1OC(C)=O` (configuration not stated), the T/C (dose: 50.0 mg/kg/injection, schedule: Q01DX009 (ip), vehicle: suspension in saline) was 114 % of control; the T/C (dose: 100.0 mg/kg/injection, schedule: Q01DX009 (ip), vehicle: suspension in saline) is 109 % of control; the T/C under setting [14] was 106 % of control; the T/C under setting [15] is 100 % of control; the T/C (dose: 400.0 mg/kg/injection, schedule: Q04DX003 (ip), vehicle: saline with Tween-80) was 91 % of control.
For the compound `Clc1cc(Cl)c(C[N+]23CN4CN(CN(C4)C2)C3)cc1Cl`, the T/C was 117 % of control under setting [3]; 108 % of control under setting [4]; 111 % of control under setting [5]; 122 % of control (dose: 200.0 mg/kg/injection, schedule: Q01DX009 (ip), vehicle: saline).
As to `CCOc1ccccc1NC(=O)Nc1ccccc1Cl`, the T/C reads like this: under setting [16], 103 % of control; under setting [17], 94 % of control; under setting [18], 89 % of control.
For the compound `C=C(Cl)C(=NC(C)(C)C)Nc1ccccc1C`, the T/C is, setting by setting: under setting [11], 99 % of control; under setting [12], 86 % of control; under setting [13], 92 % of control; under setting [1], 102 % of control.
On to `CCN(CC)N=Nc1ccccc1-c1nc(N)c2ccccc2n1`, for which the T/C reads like this: under setting [8], 94 % of control; (dose: 50.0 mg/kg/injection, schedule: Q04DX003 (ip), vehicle: Klucel (hydroxypropylcellulose) (HPC)) 109 % of control; (dose: 100.0 mg/kg/injection, schedule: Q04DX003 (ip), vehicle: Klucel (hydroxypropylcellulose) (HPC)) 96 % of control; (dose: 200.0 mg/kg/injection, schedule: Q04DX003 (ip), vehicle: Klucel (hydroxypropylcellulose) (HPC)) 103 % of control.
On to `C[As](C)[Se]C1OC(CO)C(O)C(O)C1O` (configuration not stated), for which the T/C under setting [13] is 112 % of control, the T/C under setting [1] was 106 % of control and the T/C under setting [2] is 104 % of control.
On to `CCOC(=O)Oc1c(OC)cc(C(=O)O[C@@H]2C[C@@H]3CN4CCc5c([nH]c6cc(OC)ccc56)[C@H]4C[C@@H]3[C@H](C(=O)OC)[C@H]2OC)cc1OC`, for which the T/C is, setting by setting: (dose: 0.09 mg/kg/injection, schedule: Q01DX009 (ip), vehicle: saline) 98 % of control; (dose: 0.19 mg/kg/injection, schedule: Q01DX009 (ip), vehicle: saline) 93 % of control; (dose: 0.39 mg/kg/injection, schedule: Q01DX009 (ip), vehicle: saline) 124 % of control; (dose: 0.78 mg/kg/injection, schedule: Q01DX009 (ip), vehicle: saline) 101 % of control; (dose: 1.56 mg/kg/injection, schedule: Q01DX009 (ip), vehicle: saline) 112 % of control; under setting [12], 87 % of control.
Turning to `CC(=O)C1=C(C)NC(C)=C(C(C)=O)C1c1cccc([N+](=O)[O-])c1`, the T/C runs as follows: under setting [6], 94 % of control; under setting [7], 94 % of control; under setting [16], 97 % of control.
As for `CCc1cc(C)cc(OC(=O)Nc2cccc(Cl)c2)c1`, the T/C by setting is: under setting [16], 90 % of control; under setting [17], 92 % of control; under setting [18], 86 % of control.
For the compound `COc1cccc(N2C(=O)CSC2=S)c1`, the T/C runs as follows: under setting [9], 93 % of control; under setting [10], 90 % of control.
In the case of `CCCCC(NC(=O)OC(C)(C)C)C(=O)O` (configuration not stated), the T/C is 114 % of control under setting [9], 104 % of control under setting [10] and 100 % of control under setting [19].
For `Cc1nc2c(=O)n(C)c(=O)n(C)c2n1C`, the T/C was 105 % of control (dose: 50.0 mg/kg/injection, schedule: Q04DX003 (ip), vehicle: saline with Tween-80); 105 % of control under setting [14]; 105 % of control under setting [15].
`NC(N)=Nc1cc2ccccc2c2ccccc12`: the T/C reads like this: (dose: 5.0 mg/kg/injection, schedule: Q01DX009 (ip), vehicle: saline) 93 % of control; (dose: 10.0 mg/kg/injection, schedule: Q01DX009 (ip), vehicle: saline) 111 % of control; (dose: 20.0 mg/kg/injection, schedule: Q01DX009 (ip), vehicle: saline) 120 % of control.
For the compound `CCOC(=O)NNC(=O)c1ccccc1N(C)C`, the T/C under setting [9] is 116 % of control, the T/C under setting [10] is 104 % of control and the T/C under setting [19] was 92 % of control.

The values above are taken from PubChem BioAssay AID192 (DTP/NCI, 2004).
